Our source for the IC50 values is patent publication US20120165306A1, “PYRAZINYLPYRIDINES USEFUL FOR THE TREATMENT OF PROLIFERATIVE DISEASES” (priority 2009, published 2012).

For the assay, the target named is Cdk9/cyclinT1 (Homo sapiens, UniProt P50750). Briefly: Cdk9/cyclinT1 kinase assay (IMAP or Alpha Screen protocol).
Chain of Cdk9/cyclinT1 (P50750 whole entry): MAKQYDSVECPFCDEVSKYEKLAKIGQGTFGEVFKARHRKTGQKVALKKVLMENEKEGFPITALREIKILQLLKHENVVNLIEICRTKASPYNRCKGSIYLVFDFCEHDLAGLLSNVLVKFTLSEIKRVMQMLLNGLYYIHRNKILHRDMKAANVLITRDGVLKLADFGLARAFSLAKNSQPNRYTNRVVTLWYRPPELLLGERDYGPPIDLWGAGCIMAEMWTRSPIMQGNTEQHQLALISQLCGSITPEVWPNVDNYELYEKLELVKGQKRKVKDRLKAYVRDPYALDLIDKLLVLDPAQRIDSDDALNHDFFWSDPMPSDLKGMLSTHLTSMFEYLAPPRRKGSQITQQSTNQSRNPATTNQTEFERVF
Chain of Cdk9/cyclinT1 (O60563 whole entry partner): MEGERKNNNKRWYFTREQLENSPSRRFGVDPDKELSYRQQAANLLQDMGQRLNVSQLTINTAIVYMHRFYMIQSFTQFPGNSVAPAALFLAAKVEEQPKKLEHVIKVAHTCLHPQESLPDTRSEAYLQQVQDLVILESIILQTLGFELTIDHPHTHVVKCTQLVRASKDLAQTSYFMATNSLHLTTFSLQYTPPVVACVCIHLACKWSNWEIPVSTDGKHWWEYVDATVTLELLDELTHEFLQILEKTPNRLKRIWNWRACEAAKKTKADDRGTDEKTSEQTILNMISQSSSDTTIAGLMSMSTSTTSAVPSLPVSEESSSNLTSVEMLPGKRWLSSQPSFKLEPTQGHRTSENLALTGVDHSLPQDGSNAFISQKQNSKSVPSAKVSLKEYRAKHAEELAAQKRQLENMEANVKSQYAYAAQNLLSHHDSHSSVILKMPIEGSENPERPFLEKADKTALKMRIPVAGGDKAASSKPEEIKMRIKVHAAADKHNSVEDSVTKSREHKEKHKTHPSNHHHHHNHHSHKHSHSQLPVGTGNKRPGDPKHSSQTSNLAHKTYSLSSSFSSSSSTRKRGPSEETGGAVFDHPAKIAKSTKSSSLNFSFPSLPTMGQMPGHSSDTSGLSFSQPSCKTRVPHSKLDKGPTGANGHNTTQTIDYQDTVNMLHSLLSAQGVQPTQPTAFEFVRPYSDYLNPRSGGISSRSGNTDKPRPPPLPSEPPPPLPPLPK

Text: Cdk9/cyclinT1 IMAP Protocol
Fluorescence polarization (FP) is used for detection.
Cdk9/cyclinT1 Alpha Screen Protocol

A word on the IC50: it is the concentration that gives 50% inhibition. Read a high IC50 as a need for much substance. In turn, `O=C(Nc1cc(-c2cncc(NCCN3CCCC3=O)n2)c(Cl)cn1)[C@@H]1CCCNC1` [Example 32, (R)-Piperidine-3-carboxylic acid (5-chloro-4-{6-[2-(2-oxo-pyrrolidin-1-yl)-ethylamino]-pyrazin-2-yl}-pyridin-2-yl)-amide] showed an IC50 of 20 nM.

For the compound `COC(=O)N1CCC[C@H](C(=O)Nc2cc(-c3cncc(NCC4CCOCC4)n3)c(Cl)cn2)C1` [Example 49, (S)-3-(5-Chloro-4-{6-[(tetrahydro-pyran-4-ylmethyl)-amino]-pyrazin-2-yl}-pyridin-2-ylcarbamoyl)-piperidine-1-carboxylic acid methyl ester], the 50% inhibitory concentration (IC50) was < 8 nM.

The compound `CC(=O)N1CCC[C@@H](C(=O)Nc2cc(-c3cncc(NCC4CCOCC4)n3)c(Cl)cn2)C1` [Example 5, (R)-1-Acetyl-piperidine-3-carboxylic acid (5-chloro-4-{6-[(tetrahydro-pyran-4-ylmethyl)-amino]-pyrazin-2-yl}-pyridin-2-yl)-amide] yielded a 50% inhibitory concentration (IC50) of 268 nM.

`O=C(Nc1cc(-c2cncc(NCC3CCOCC3)n2)c(Cl)cn1)[C@H]1CCCNC1` [Example 8, (S)-Piperidine-3-carboxylic acid (5-chloro-4-{6-[(tetrahydro-pyran-4-ylmethyl)-amino]-pyrazin-2-yl}-pyridin-2-yl)-amide] had a half-inhibitory concentration (IC50) of 28 nM.

Consider `CC(C)C(=O)Nc1cc(-c2cncc(NCC3CCOCC3)n2)c(Cl)cn1` [Example 12, N-(5-Chloro-4-{6-[(tetrahydro-pyran-4-ylmethyl)-amino]-pyrazin-2-yl}-pyridin-2-yl)-isobutyramide], for which the IC50 was < 8 nM.

`O=C(Nc1cc(-c2cncc(NCC3CCOCC3)n2)c(Cl)cn1)C1CCNCC1` [Example 22, Piperidine-4-carboxylic acid (5-chloro-4-{6-[(tetrahydro-pyran-4-ylmethyl)-amino]-pyrazin-2-yl}-pyridin-2-yl)-amide] displayed an IC50 of 8 nM.

`N[C@H]1CC[C@@H](C(=O)Nc2cc(-c3cncc(NCC4CCOCC4)n3)c(C(F)(F)F)cn2)C1` [Example 62, (1R,3S)-3-Amino-cyclopentanecarboxylic acid (4-{6-[(tetrahydro-pyran-4-ylmethyl)-amino]-pyrazin-2-yl}-5-trifluoromethyl-pyridin-2-yl)-amide]: 40 nM corresponded to half-maximal inhibition (IC50).

Compound `O=C(Nc1cc(-c2cncc(NC[C@H]3CCCO3)n2)c(Cl)cn1)[C@@H]1CCCNC1` [Example 31, (R)-Piperidine-3-carboxylic acid [5-chloro-4-(6-{[(R)-1-(tetrahydro-furan-2-yl)methyl]-amino}-pyrazin-2-yl)-pyridin-2-yl]-amide] gave a half-maximal inhibitory concentration (IC50) of 19 nM.

Consider `C[C@@H](O)CNc1cncc(-c2cc(NC(=O)[C@@H]3CCCNC3)ncc2Cl)n1` [Example 28, (R)-Piperidine-3-carboxylic acid {5-chloro-4-[6-((R)-2-hydroxy-propylamino)-pyrazin-2-yl]-pyridin-2-yl}-amide], for which the midpoint of inhibition, the IC50, lay at 15 nM.

`O=C(Nc1cc(-c2cncc(NCC3CCOCC3)n2)c(Cl)cn1)[C@@H]1CCCNC1` [Example 9, (R)-Piperidine-3-carboxylic acid (5-chloro-4-{6-[(tetrahydro-pyran-4-ylmethyl)-amino]-pyrazin-2-yl}-pyridin-2-yl)-amide]: the IC50 was < 8 nM.

For `CCS(=O)(=O)N1CCC[C@H](C(=O)Nc2cc(-c3cncc(NCC4CCOCC4)n3)c(Cl)cn2)C1` [Example 45, (S)-1-Ethanesulfonyl-piperidine-3-carboxylic acid (5-chloro-4-{6-[(tetrahydro-pyran-4-ylmethyl)-amino]-pyrazin-2-yl}-pyridin-2-yl)-amide], the IC50 was < 8 nM.

For the compound `O=C(Nc1cc(-c2cncc(NCC3CCOCC3)n2)c(Cl)cn1)C1CCCOC1` (stereo not shown) [Example 23, Tetrahydro-pyran-3-carboxylic acid (5-chloro-4-{6-[(tetrahydro-pyran-4-ylmethyl)-amino]-pyrazin-2-yl}-pyridin-2-yl)-amide], the IC50 stood at 9 nM.

`O=C(Nc1cc(-c2cncc(NCC3CCOCC3)n2)c(Cl)cn1)[C@@H]1CCCN1` [Example 40, (S)-Pyrrolidine-2-carboxylic acid (5-chloro-4-{6-[(tetrahydro-pyran-4-ylmethyl)-amino]-pyrazin-2-yl}-pyridin-2-yl)-amide] displayed an IC50 of 37 nM.

With `C[C@H](Nc1cncc(-c2cc(NC(=O)[C@@H]3CCCNC3)ncc2Cl)n1)C1CCCCC1` [Example 36, (R)-Piperidine-3-carboxylic acid {5-chloro-4-[6-((S)-1-cyclohexyl-ethylamino)-pyrazin-2-yl]-pyridin-2-yl}-amide], the 50% inhibitory concentration (IC50) was < 8 nM.

In the case of `O=C(Nc1cc(-c2cncc(NCC3CCOCC3)n2)c(C(F)(F)F)cn1)[C@@H]1CCCNC1` [Example 61, (R)-Piperidine-3-carboxylic acid (4-{6-[(tetrahydro-pyran-4-ylmethyl)-amino]-pyrazin-2-yl}-5-trifluoromethyl-pyridin-2-yl)-amide], the midpoint of inhibition, the IC50, lay at 130 nM.

For `COC(=O)N[C@H]1CC[C@@H](C(=O)Nc2cc(-c3cncc(NCC4CCOCC4)n3)c(Cl)cn2)C1` [Example 54, [(1S,3R)-3-(5-Chloro-4-{6-[(tetrahydro-pyran-4-ylmethyl)-amino]-pyrazin-2-yl}-pyridin-2-ylcarbamoyl)-cyclopentyl]-carbamic acid methyl ester], the IC50 was < 8 nM.

For `CC(C)S(=O)(=O)N1CCC[C@H](C(=O)Nc2cc(-c3cncc(NCC4CCOCC4)n3)c(Cl)cn2)C1` [Example 56, (S)-1-(Propane-2-sulfonyl)-piperidine-3-carboxylic acid (5-chloro-4-{6-[(tetrahydro-pyran-4-ylmethyl)-amino]-pyrazin-2-yl}-pyridin-2-yl)-amide], the IC50 is < 8 nM.

The compound `Cc1cnc(NC(=O)C(C)C)cc1-c1cncc(NCC2CCOCC2)n1` [Example 60, N-(5-Methyl-4-{6-[(tetrahydro-pyran-4-ylmethyl)-amino]-pyrazin-2-yl}-pyridin-2-yl)-isobutyramide] displayed a 50% inhibitory concentration (IC50) of 73 nM.

Turning to `O=C(Nc1cc(-c2cncc(NC3CCOCC3)n2)c(Cl)cn1)[C@@H]1CCCNC1` [Example 27, (R)-Piperidine-3-carboxylic acid {5-chloro-4-[6-(tetrahydro-pyran-4-ylamino)-pyrazin-2-yl]-pyridin-2-yl}-amide], the IC50 turned out to be 48 nM.

With `O=C(Nc1cc(-c2cncc(NCc3cccc(OC(F)F)c3)n2)c(Cl)cn1)[C@@H]1CCCNC1` [Example 18, (R)-Piperidine-3-carboxylic acid {5-chloro-4-[6-(3-difluoromethoxy-benzylamino)-pyrazin-2-yl]-pyridin-2-yl}-amide], the IC50 was < 8 nM.

The compound `O=C(Nc1cc(-c2cnccn2)c(Cl)cn1)[C@@H]1CCCNC1` [Example 1, (R)-Piperidine-3-carboxylic acid (5-chloro-4-pyrazin-2-yl-pyridin-2-yl)-amide] had an IC50 of 2100 nM.

Take `N[C@@H]1CC[C@H](C(=O)Nc2cc(-c3cncc(NCC4CCOCC4)n3)c(Cl)cn2)C1` [Example 42, (1S,3R)-3-Amino-cyclopentanecarboxylic acid (5-chloro-4-{6-[(tetrahydro-pyran-4-ylmethyl)-amino]-pyrazin-2-yl}-pyridin-2-yl)-amide]: inhibition was half-maximal at 25 nM (IC50).

In turn, `O=C(Nc1cc(-c2cncc(NCC3CCOCC3)n2)c(C(F)(F)F)cn1)C1CCOCC1` [Example 59, Tetrahydro-pyran-4-carboxylic acid (4-{6-[(tetrahydro-pyran-4-ylmethyl)-amino]-pyrazin-2-yl}-5-trifluoromethyl-pyridin-2-yl)-amide] registered an IC50 of 1010 nM.

Take `O=C(Nc1cc(-c2cncc(NCC3CCOCC3)n2)c(Cl)cn1)C1CCOCC1` [Example 15, Tetrahydro-pyran-4-carboxylic acid (5-chloro-4-{6-[(tetrahydro-pyran-4-ylmethyl)-amino]-pyrazin-2-yl}-pyridin-2-yl)-amide]: the IC50 was < 8 nM.

Consider `COCCNc1cncc(-c2cc(NC(=O)[C@@H]3CCCNC3)ncc2Cl)n1` [Example 35, (R)-Piperidine-3-carboxylic acid {5-chloro-4-[6-(2-methoxy-ethylamino)-pyrazin-2-yl]-pyridin-2-yl}-amide], for which half-maximal inhibition (IC50) was put at 47 nM.

The compound `O=C(Nc1cc(-c2cncc(NC[C@@H]3CCCO3)n2)c(Cl)cn1)[C@@H]1CCCNC1` [Example 33, (R)-Piperidine-3-carboxylic acid [5-chloro-4-(6-{[(S)-1-(tetrahydro-furan-2-yl)methyl]-amino}-pyrazin-2-yl)-pyridin-2-yl]-amide] yielded an IC50 of 15 nM.

In the case of `N[C@@H]1CC[C@@H](C(=O)Nc2cc(-c3cncc(NCC4CCOCC4)n3)c(Cl)cn2)C1` [Example 44, (1R,3R)-3-Amino-cyclopentanecarboxylic acid (5-chloro-4-{6-[(tetrahydro-pyran-4-ylmethyl)-amino]-pyrazin-2-yl}-pyridin-2-yl)-amide], the IC50 is < 8 nM.

As for `Cc1ncc(NCC2CCOCC2)nc1-c1cc(NC(=O)[C@@H]2CCCNC2)ncc1Cl` [Example 24, (R)-Piperidine-3-carboxylic acid (5-chloro-4-{3-methyl-6-[(tetrahydro-pyran-4-ylmethyl)-amino]-pyrazin-2-yl}-pyridin-2-yl)-amide], the IC50 is < 8 nM.

`COCCN1CCC[C@@H](C(=O)Nc2cc(-c3cncc(NCC4CCOCC4)n3)c(Cl)cn2)C1` [Example 3] returned a half-inhibitory concentration (IC50) of 316 nM.

Turning to `O=C(Nc1cc(-c2cncc(NCc3ccc(F)cc3)n2)c(Cl)cn1)[C@@H]1CCCNC1` [Example 20, (R)-Piperidine-3-carboxylic acid {5-chloro-4-[6-(4-fluoro-benzylamino)-pyrazin-2-yl]-pyridin-2-yl}-amide], the half-inhibitory concentration (IC50) was < 8 nM.

As for `CS(=O)(=O)N[C@@H]1CC[C@H](C(=O)Nc2cc(-c3cncc(NCC4CCOCC4)n3)c(Cl)cn2)C1` [Example 50, (1S,3R)-3-Methanesulfonylamino-cyclopentanecarboxylic acid (5-chloro-4-{6-[(tetrahydro-pyran-4-ylmethyl)-amino]-pyrazin-2-yl}-pyridin-2-yl)-amide], the concentration for half-maximal inhibition (IC50) is < 8 nM.
